From ChEMBL document CHEMBL1157697, “Novel ester and acid derivatives of the 1,5-diarylpyrrole scaffold as anti-inflammatory and analgesic agents. Synthesis and in vitro and in vivo biological evaluation” (J Med Chem, 2010)
Active and inactive are the calls of the source. The rule behind the calls is not given here.

Experiments:
[1] = biological target: T1, Prostaglandin G/H synthase 2 (Mus musculus, UniProt Q05769)
T1 sequence (Q05769 whole entry): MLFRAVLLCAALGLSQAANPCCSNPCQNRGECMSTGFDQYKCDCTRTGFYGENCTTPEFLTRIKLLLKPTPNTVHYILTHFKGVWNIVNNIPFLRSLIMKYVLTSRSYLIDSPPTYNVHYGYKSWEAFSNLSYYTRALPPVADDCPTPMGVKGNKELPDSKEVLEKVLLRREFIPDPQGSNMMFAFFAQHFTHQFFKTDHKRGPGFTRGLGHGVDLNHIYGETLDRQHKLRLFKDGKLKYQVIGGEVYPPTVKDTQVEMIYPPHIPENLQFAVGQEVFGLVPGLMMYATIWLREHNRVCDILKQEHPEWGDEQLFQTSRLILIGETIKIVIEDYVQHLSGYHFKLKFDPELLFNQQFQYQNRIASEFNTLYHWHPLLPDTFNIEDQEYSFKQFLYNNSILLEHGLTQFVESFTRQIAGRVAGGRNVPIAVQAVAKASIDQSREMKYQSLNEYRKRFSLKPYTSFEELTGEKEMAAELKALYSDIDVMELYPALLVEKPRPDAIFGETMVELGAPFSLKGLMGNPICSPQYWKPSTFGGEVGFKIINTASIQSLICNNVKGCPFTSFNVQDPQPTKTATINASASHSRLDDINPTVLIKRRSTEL
Description: Inhibition of COX2-dependent PGE2 production in LPS-stimulated mouse J774 cells by RIA

Mus musculus [2] = species on record: Mus musculus; experiment: Selectivity index, ratio of IC50 for mouse COX1 to IC50 for mouse COX2
[3] = Metabolic stability in human liver microsomes at 0.1 uM; type: ADME, Microsome; details: read-out: Stability; also: time not given here
Rattus norvegicus [4] = experiment: Antiinflammatory activity against carrageenan-induced paw edema rat inflammatory model assessed as paw pressure at 20 mg/kg, po after 120 mins; type: functional
Rattus norvegicus [5] = experiment: Antiinflammatory activity against carrageenan-induced paw edema rat inflammatory model assessed as paw pressure at 20 mg/kg, po after 60 mins; type: functional
Rattus norvegicus [6] = experiment: Antiinflammatory activity against carrageenan-induced paw edema rat inflammatory model assessed as suppression of paw edema at 20 mg/kg, po after 60 mins; type: functional
Rattus norvegicus [7] = experiment: Antiinflammatory activity against carrageenan-induced paw edema rat inflammatory model assessed as paw pressure at 20 mg/kg, po after 30 mins; type: functional
Rattus norvegicus [8] = experiment: Antiinflammatory activity against carrageenan-induced paw edema rat inflammatory model assessed as paw volume at 20 mg/kg, po after 60 mins; type: functional
[9] = biological target: T2, Prostaglandin G/H synthase 1 (Mus musculus, UniProt P22437)
T2 sequence (P22437 whole entry): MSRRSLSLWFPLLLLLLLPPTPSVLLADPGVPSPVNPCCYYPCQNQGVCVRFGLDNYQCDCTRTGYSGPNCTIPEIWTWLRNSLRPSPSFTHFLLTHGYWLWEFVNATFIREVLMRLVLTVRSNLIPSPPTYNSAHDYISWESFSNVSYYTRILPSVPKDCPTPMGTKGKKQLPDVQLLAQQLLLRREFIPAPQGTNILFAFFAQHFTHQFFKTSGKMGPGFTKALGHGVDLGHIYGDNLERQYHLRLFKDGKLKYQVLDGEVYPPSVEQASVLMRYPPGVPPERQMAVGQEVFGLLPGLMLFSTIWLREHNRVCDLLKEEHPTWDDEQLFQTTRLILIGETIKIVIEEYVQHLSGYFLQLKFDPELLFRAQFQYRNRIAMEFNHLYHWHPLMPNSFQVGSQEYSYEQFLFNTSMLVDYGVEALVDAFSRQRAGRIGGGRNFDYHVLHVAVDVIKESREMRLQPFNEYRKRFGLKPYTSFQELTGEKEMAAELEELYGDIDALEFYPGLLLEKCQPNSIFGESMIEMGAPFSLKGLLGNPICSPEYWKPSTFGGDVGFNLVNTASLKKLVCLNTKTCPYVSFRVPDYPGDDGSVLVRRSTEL
Description: Inhibition of COX1-dependent PGE2 production in LPS-stimulated mouse J774 cells by RIA

Mus musculus [10] = experiment: Analgesic activity against acetic acid-induced mouse abdominal constriction assessed as writhing at 20 mg/kg, po; details: Abdomen
[11] = Metabolic stability in human liver microsomes at 10 uM; type: ADME, Microsome; details: read-out: Stability; also: time not given here
[12] = biological target: Prostaglandin G/H synthase 1 (Homo sapiens, UniProt P23219); experiment: Inhibition of COX1 in human whole blood assessed as thromboxane B2 production by RIA; type: tissue-based
Prostaglandin G/H synthase 1 (Homo sapiens, UniProt P23219), sequence (P23219 whole entry): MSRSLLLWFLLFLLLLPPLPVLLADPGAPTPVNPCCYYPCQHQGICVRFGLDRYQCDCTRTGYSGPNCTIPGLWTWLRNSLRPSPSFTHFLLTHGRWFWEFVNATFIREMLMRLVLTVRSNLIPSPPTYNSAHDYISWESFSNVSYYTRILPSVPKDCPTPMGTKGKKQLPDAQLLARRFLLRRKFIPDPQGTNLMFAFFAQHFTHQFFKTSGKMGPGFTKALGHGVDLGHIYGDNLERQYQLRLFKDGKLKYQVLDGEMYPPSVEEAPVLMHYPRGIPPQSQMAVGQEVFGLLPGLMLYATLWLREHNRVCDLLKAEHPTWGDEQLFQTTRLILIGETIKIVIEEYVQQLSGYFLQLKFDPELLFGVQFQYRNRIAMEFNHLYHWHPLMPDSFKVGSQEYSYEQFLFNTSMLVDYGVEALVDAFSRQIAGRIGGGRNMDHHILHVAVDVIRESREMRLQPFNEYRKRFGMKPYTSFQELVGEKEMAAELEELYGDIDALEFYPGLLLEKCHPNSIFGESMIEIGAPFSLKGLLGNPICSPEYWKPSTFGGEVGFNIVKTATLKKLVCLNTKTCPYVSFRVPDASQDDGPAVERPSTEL

Mus musculus [13] = experiment: Analgesic activity against acetic acid-induced po dosed mouse abdominal constriction assessed as writhing; details: Abdomen
[14] = biological target: T3, Prostaglandin G/H synthase 2 (Homo sapiens, UniProt P35354); experiment: Inhibition of COX2 in human whole blood assessed as inhibition of LPS-induced PGE2 production by RIA; type: tissue-based
T3 sequence (P35354 whole entry): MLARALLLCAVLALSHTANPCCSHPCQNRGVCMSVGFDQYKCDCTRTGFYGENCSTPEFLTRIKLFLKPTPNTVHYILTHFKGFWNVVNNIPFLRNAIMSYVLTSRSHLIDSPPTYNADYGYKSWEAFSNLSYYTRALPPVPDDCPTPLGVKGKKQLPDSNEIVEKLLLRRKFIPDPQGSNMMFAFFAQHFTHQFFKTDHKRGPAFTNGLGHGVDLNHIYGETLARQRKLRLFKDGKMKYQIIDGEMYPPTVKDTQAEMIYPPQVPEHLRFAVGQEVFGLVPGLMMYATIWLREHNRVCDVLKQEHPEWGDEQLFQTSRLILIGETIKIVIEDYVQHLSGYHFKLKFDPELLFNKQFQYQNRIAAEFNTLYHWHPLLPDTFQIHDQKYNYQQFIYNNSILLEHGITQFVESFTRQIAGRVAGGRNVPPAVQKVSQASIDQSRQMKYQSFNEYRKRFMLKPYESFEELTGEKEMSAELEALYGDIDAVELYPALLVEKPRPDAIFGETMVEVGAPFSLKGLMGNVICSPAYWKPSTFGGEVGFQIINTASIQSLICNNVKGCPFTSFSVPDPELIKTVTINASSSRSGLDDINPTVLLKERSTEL

Mus musculus [15] = experiment: Analgesic activity against acetic acid-induced mouse abdominal constriction assessed as writhing at 10 mg/kg, po; details: Abdomen

Structure (SMILES) | IC50 [1] [nM] | Ratio IC50 (Mus musculus [2]) | remaining at 0.1 µM [3] [%] | Activity (Rattus norvegicus [4]) [g] | Activity (Rattus norvegicus [5]) [g] | Activity (Rattus norvegicus [6]) [%] | Activity (Rattus norvegicus [7]) [g] | Activity (Rattus norvegicus [8]) [mL] | IC50 [9] [nM] | Activity (Mus musculus [10]) | remaining at 10 µM [11] [%] | IC50 [12] [nM] | Activity (Mus musculus [13]) | IC50 [14] [nM] | Activity (Mus musculus [15])
CCCCOC(=O)Cc1cc(-c2ccc(S(C)(=O)=O)cc2)n(-c2ccc(F)c(F)c2)c1C | 30 | > 3300 | 2 | 56.6 | 59.2 | 73.6 | 52.7 | 1.52 | > 100000 | Active | 15 | – | – | – | –
COc1ccc(-n2c(-c3ccc(S(C)(=O)=O)cc3)cc(CC(=O)O)c2C)cc1 | 170 | > 580 | 77 | 36.2 | 39.8 | 50.9 | 52.3 | 1.81 | > 100000 | – | 84 | – | – | – | –
CCCCOC(=O)Cc1cc(-c2ccc(S(C)(=O)=O)cc2)n(-c2ccccc2)c1C | 14 | > 7100 | 7 | 42.6 | 46.3 | 66.3 | 52.5 | 1.68 | > 100000 | – | 3 | – | – | – | –
CCCCOC(=O)Cc1cc(-c2ccc(S(C)(=O)=O)cc2)n(-c2cccc(F)c2)c1C | 24 | > 4100 | 0 | 45.2 | 46.9 | 67.2 | 49.7 | 1.71 | > 100000 | – | 2 | – | – | – | –
Cc1c(CC(=O)OC(C)C)cc(-c2ccc(S(C)(=O)=O)cc2)n1-c1ccc(F)c(F)c1 | 21 | > 4700 | 0 | 58.3 | 52.3 | 89 | 64.8 | 1.39 | > 100000 | – | 13 | – | – | – | –
Cc1c(CC(=O)O)cc(-c2ccc(S(C)(=O)=O)cc2)n1-c1cccc(F)c1 | 28 | > 3500 | 100 | 43.1 | 55.2 | 93.6 | 54.8 | 1.35 | > 100000 | Active | 100 | 125000 | Dose-dependent effect | 17000 | –
COc1ccc(-n2c(-c3ccc(S(C)(=O)=O)cc3)cc(CC(=O)OC(C)C)c2C)cc1 | 22 | > 4500 | 7 | 41.7 | 56.7 | 77.2 | 51 | 1.41 | > 100000 | – | 1 | – | – | – | –
Cc1c(CC(=O)OC(C)C)cc(-c2ccc(S(C)(=O)=O)cc2)n1-c1cccc(F)c1 | 43 | > 2300 | 0 | 45.2 | 57.9 | 87.2 | 59.5 | 1.31 | > 100000 | – | 1 | 24000 | Dose-dependent effect | 2000 | –
Cc1c(CC(=O)O)cc(-c2ccc(S(C)(=O)=O)cc2)n1-c1ccc(F)c(F)c1 | 260 | 38 | 100 | 48.6 | 54.1 | 90.9 | 58.3 | 1.42 | 10000 | Active | 100 | – | – | – | –
Cc1c(CC(=O)O)cc(-c2ccc(S(C)(=O)=O)cc2)n1-c1ccccc1 | – | > 100 | 94 | 41.6 | 51.8 | 42.7 | 48.6 | 1.86 | – | – | 97 | 132000 | – | 7000 | –
CCOC(=O)Cc1cc(-c2ccc(S(C)(=O)=O)cc2)n(-c2ccccc2)c1C | – | > 2500 | – | – | – | – | – | – | – | – | – | – | – | – | –
CCCCOC(=O)Cc1cc(-c2ccc(S(C)(=O)=O)cc2)n(-c2ccc(OC)cc2)c1C | 38 | > 2600 | 5 | 50.8 | 51.4 | 89.1 | 53.4 | 1.45 | > 100000 | Active | 2 | – | – | – | Active
